Measurements taken from US10052306B2 (LUC THERAPEUTICS, INC., priority 2013, dated 2018).

Target: NR1/NR2B (Homo sapiens (Human), UniProt Q05586+Q13224)
Experiment: Cell assay: FDSS Ca2+ influx inhibition in HEK293 cells expressing NR1/NR2B;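 note: Fluo-8 Ca2+ signal read on Hamamatsu FDSS 6000 after glutamate, glycine and Ca2+ challenge following 10 min compound preincubation, end/baseline fluorescence ratio compared with MK801 control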
Conditions: Ca2+ influx
[1] = Binned Activity, HEK293 cells expressing NR1/NR2B, binned NR2B NAM IC50
[2] = NR2B NAM IC50, HEK293 cells expressing NR1/NR2B

Sequence of NR1/NR2B (Q13224 27-1484, other chains not shown): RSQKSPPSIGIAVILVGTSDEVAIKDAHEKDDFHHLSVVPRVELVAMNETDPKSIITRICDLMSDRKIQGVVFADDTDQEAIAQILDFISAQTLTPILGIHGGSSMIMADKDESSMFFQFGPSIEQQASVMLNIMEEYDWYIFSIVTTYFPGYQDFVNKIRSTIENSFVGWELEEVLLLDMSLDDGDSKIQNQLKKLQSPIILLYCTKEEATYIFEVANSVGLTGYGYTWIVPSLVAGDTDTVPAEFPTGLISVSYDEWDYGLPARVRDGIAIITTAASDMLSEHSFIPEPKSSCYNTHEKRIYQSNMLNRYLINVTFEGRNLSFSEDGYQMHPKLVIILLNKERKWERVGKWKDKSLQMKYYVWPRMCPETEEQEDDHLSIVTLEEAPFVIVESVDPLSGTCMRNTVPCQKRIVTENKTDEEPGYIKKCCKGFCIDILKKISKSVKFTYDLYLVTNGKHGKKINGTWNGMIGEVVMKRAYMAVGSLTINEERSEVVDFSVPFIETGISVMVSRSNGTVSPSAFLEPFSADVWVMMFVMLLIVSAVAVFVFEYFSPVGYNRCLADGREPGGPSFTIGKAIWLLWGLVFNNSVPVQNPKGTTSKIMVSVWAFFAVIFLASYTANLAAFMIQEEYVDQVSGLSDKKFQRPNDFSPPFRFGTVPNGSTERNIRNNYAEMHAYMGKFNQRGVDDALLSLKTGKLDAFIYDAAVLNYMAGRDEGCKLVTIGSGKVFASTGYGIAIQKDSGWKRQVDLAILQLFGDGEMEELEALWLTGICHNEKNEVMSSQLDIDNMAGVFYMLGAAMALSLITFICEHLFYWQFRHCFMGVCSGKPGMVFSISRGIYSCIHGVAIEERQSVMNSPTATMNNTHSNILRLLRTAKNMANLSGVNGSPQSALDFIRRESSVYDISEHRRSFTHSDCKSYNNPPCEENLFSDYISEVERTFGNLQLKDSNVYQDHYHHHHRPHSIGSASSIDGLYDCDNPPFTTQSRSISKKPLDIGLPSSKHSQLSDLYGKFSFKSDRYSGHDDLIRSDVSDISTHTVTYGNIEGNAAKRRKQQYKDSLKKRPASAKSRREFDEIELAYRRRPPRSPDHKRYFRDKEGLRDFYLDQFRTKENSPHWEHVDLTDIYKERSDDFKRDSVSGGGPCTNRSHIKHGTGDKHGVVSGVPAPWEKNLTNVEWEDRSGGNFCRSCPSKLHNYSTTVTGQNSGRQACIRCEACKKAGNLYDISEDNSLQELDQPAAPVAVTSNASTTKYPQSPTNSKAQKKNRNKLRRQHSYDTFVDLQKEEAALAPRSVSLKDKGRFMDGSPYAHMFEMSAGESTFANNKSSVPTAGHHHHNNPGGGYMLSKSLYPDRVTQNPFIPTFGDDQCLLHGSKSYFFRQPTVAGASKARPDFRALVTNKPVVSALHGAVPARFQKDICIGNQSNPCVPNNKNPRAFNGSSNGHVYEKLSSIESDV

IC50 [1]	IC50 [2]	SMILES
> 10000 nM	≥ 10000 nM	Oc1ccc(C(O)CN2C[C@@H]3C[C@@](O)(c4ccccc4)C[C@@H]3C2)cc1 (mixture of isomers) [Example 67, rac-2-[2-hydroxy-2-(4-hydroxyphenyl)ethyl]-5-phenyl-octahydrocyclopenta[c] pyrrol-5-ol]
> 10000 nM	≥ 10000 nM	Oc1ccc(C(O)CN2C[C@@H]3C[C@@](O)(c4cccnc4F)C[C@@H]3C2)nc1 (mixture of isomers) [Example 251, rac-(3aR,6aS)-5-(2-fluoropyridin-3-yl)-2-(2-hydroxy-2-(5-hydroxypyridin-2-yl)ethyl)octahydrocyclo-penta[c]pyrrol-5-ol]
	10500 nM	CC(C(O)c1ccc(O)cc1)N1C[C@@H]2C[C@@](O)(c3ccc(C(C)(C)C)cc3)C[C@@H]2C1 (mixture of isomers) [Example 96, rac-5-(4-tert-butylphenyl)-2-[1-hydroxy-1-(4-hydroxyphenyl)propan-2-yl]-octahydrocyclopenta[c] pyrrol-5-ol]
	476 nM	CO[C@@]1(Cc2ccccc2)C[C@H]2CN(CC(O)c3ccc(O)c(F)n3)C[C@H]2C1 (mixture of isomers) [Example 198, rac-6-(2-((3aR,5r,6aS)-5-benzyl-5-methoxyhexahydrocyclo-penta[c]pyrrol-2(1H)-yl)-1-hydroxyethyl)-2-fluoropyridin-3-ol]
> 10000 nM		COc1cccc([C@]2(O)C[C@H]3CN(C(=O)Nc4ccc(Cl)c(C(F)(F)F)c4)C[C@H]3C2)c1 [Example 34, N-[4-chloro-3-(trifluoromethyl)phenyl]-5-hydroxy-5-(3-methoxyphenyl)-octahydrocyclopenta[c] pyrrole-2-carboxamide]
> 10000 nM	≥ 10000 nM	CC(C)(C)c1ccc([C@]2(O)C[C@H]3CN(CC(O)c4cccc(C(F)(F)F)c4)C[C@H]3C2)cc1 (mixture of isomers) [Example 70, rac-5-(4-(tert-butyl)phenyl)-2-(2-hydroxy-2-(3-(trifluoromethyl)phenyl)ethyl)octahydrocyclo-penta[c]pyrrol-5-ol]
	666 nM	Cc1cc(C)cc(C[C@]2(O)C[C@H]3CN(CC(O)c4ccc(O)cn4)C[C@H]3C2)c1 (mixture of isomers) [Example 208, rac-6-{2-[(3aR,5R,6aS)-5-[(3,5-dimethylphenyl)methyl]-5-hydroxy-octahydrocyclopenta[c]pyrrol-2-yl]-1-hydroxyethyl}pyridin-3-ol-3-ol]
	2050 nM	CC(C(O)c1ccc(O)cc1)N1C[C@@H]2C[C@@](O)(CCc3ccccc3)C[C@@H]2C1 (mixture of isomers) [Example 320, rac-2-(1-hydroxy-1-(4-hydroxyphenyl)propan-2-yl)-5-phenethyl-octahydrocyclo-panta[c]pyrrol-5-ol]
> 10000 nM	≥ 10000 nM	OC(CN1C[C@@H]2C[C@@](O)(Cc3ccccc3)C[C@@H]2C1)c1cccc(C(F)(F)F)c1 (mixture of isomers) [Example 288, rac-(3aR,5r,6aS)-benzyl-2-(2-hydroxy-2-(3-(trifluoromethyl)phenyl)ethyl)octahydrocyclo-penta[c]pyrrol-5-ol]
> 10000 nM	≥ 10000 nM	COc1ccc(NC(=O)N2C[C@@H]3C[C@@](O)(c4ccccc4C)C[C@@H]3C2)cc1 [Example 8]
	114 nM	CS(=O)(=O)Nc1ccc(C(O)CN2C[C@@H]3C[C@@](O)(Cc4ccccc4)C[C@@H]3C2)nc1 (mixture of isomers) [Example 236, rac-N-(6-(2-((3aR,5r,6aS)-5-benzyl-5-hydroxyhexahydrocyclo-penta[c]pyrrol-2(1H)-yl)-1-hydroxyethyl)pyridin-3-yl)methanesulfonamide]
> 10000 nM	≥ 10000 nM	OC(CN1C[C@@H]2C[C@@](O)(Cc3ccccc3)C[C@@H]2C1)c1ccc(Cl)cc1Cl (mixture of isomers) [Example 287, rac-(3aR,5r,6aS)-5-benzyl-2-(2-(2,4-dichlorophenyl)-2-hydroxyethyl)octahydro-cyclopenta[c]pyrrol-5-ol]
	17.8 nM	Oc1ccc(C(O)CN2C[C@@H]3C[C@@](O)(Cc4ccc(F)cc4)C[C@@H]3C2)nc1 (mixture of isomers) [Example 168, rac-(3aR,5r,6aS)-5-(4-fluorobenzy)-2-(2-hydroxy-2-(5-hydroxypyridin-2-yl)ethyl)octahydrocyclo-penta[c]pyrrol-5-ol]
100 to 1000 nM	139 nM	Oc1ccc(C(O)CN2C[C@H]3CN(Cc4ccccc4)C[C@H]3C2)cc1 (mixture of isomers) [Example 327, rac-4-(2-(5-benzylhexahydropyrrolo [3,4-c]pyrrol-2(1H)-yl)-1-hydroxyethyl)phenol]
	20.1 nM	Oc1ccc(C(O)CN2C[C@H]3C[C@H](Cc4ccccc4)C[C@H]3C2)cc1F (mixture of isomers) [Example 302, rac-4-{2-[(3aR,5R,6aS)-5-benzyl-octahydrocyclopenta[c]pyrrol-2-yl]-1-hydroxyethyl}-2-fluorophenol]
> 10000 nM	≥ 10000 nM	COc1cccc([C@]2(O)C[C@H]3CN(C(=O)Nc4ccc(C)cc4)C[C@H]3C2)c1 [Example 14]

IC50 [1]	IC50 [2]	SMILES
	171 nM	Oc1ccc(C(O)CN2C[C@@H]3C[C@@](O)(Cc4ccccc4)C[C@@H]3C2)nc1F (mixture of isomers) [Example 191, rac-(3aR,5r,6aS)-5-benzyl-2-(2-(6-fluoro-5-hydroxypyridin-2-yl)-2-hydroxyethyl)octahydro-cyclopenta[c]pyrrol-5-ol]
< 100 nM	11.7 nM	Oc1ccc(C(O)CN2C[C@H]3C[C@H](Cc4ccccc4)C[C@H]3C2)cc1 (mixture of isomers) [Example 306, rac-4-{2-[(3aR,5R,6aS)-5-benzyl-octahydrocyclopenta[c]pyrrol-2-yl]-1-hydroxyethyl}phenol]
< 100 nM	29.9 nM	Oc1ccc(C(O)CN2C[C@@H]3C[C@@](O)(Cc4ccc(F)cc4F)C[C@@H]3C2)nc1 (mixture of isomers) [Example 233, rac-(3aR,5r,6aS)-5-(2,4-difluorobenzyl)-2-(2-hydroxy-2-(5-hydroxypyridin-2-yl)ethyl)octahydrocyclo-penta[c]pyrrol-5-ol]
> 10000 nM	≥ 10000 nM	OC(CN1C[C@@H]2C[C@@](O)(c3ccccc3)C[C@@H]2C1)c1ccccc1 (mixture of isomers) [Example 58, rac-2-(2-hydroxy-2-phenylethyl)-5-phenyloctahydrocyclo-penta[c]pyrrol-5-ol]
> 10000 nM	≥ 10000 nM	O=C(Nc1cccnc1)N1C[C@@H]2C[C@@](O)(c3ccc(F)cc3)C[C@@H]2C1 [Example 41]
> 10000 nM		COc1ccccc1CNC(=O)N1C[C@@H]2C[C@@](O)(c3ccccc3)C[C@@H]2C1 [Example 21, 5-hydroxy-N-[(2-methoxyphenyl)methyl]-5-phenyl-octahydrocyclopenta[c] pyrrole-2-carboxamide]
	47 nM	CS(=O)(=O)Nc1ccc(C(O)CN2C[C@@H]3C[C@@](O)(Cc4ccccc4)C[C@@H]3C2)cc1 (mixture of isomers) [Example 150, rac-N-(4-(2-((3aR,5r,6aS)-5-benzyl-5-hydroxyhexahydrocyclo-penta[c]pyrrol-2(1H)-yl)-1-hydroxy-ethyl)phenyl)meth-anesulfonamide]
> 10000 nM	≥ 10000 nM	COc1cccc([C@]2(O)C[C@H]3CN(CC(O)c4cccc(F)c4)C[C@H]3C2)c1 (mixture of isomers) [Example 63, rac-2-[2-(3-fluorophenyl)-2-hydroxyethyl]-5-(3-methoxyphenyl)-octahydrocyclopenta[c] pyrrol-5-ol]
> 10000 nM	≥ 10000 nM	Oc1cnc(C(O)CN2C[C@@H]3C[C@@](O)(Cc4ccccc4)C[C@@H]3C2)cn1 (mixture of isomers) [Example 188, rac-(3aR,5r,6aS)-5-benzyl-2-(2-hydroxy-2-(5-hydroxypyrazin-2-yl)ethyl)octahydrocyclo-penta[c]pyrrol-5-ol]
	669 nM	Oc1ccc(C(O)CN2C[C@@H]3C[C@@](O)(Cc4ccccn4)C[C@@H]3C2)cc1 (mixture of isomers) [Example 232, rac-(3aR,5r,6aS)-2-(2-hydroxy-2-(4-hydroxyphenyl)ethyl)-5-(pyridin-2-ylmethyl)octahydrocyclo-penta[c]pyrrol-5-ol]
> 10000 nM	≥ 10000 nM	COc1cccc(C(O)CN2C[C@@H]3C[C@@](O)(c4cccc(OC)c4)C[C@@H]3C2)c1 (mixture of isomers) [Example 77, rac-2-[2-hydroxy-2-(3-methoxyphenyl)ethyl]-5-(3-methoxyphenyl)-octahydrocyclopenta[c] pyrrol-5-ol]
> 10000 nM	≥ 10000 nM	COc1cccc([C@]2(O)C[C@H]3CN(C(C)C(O)c4ccc(O)cc4)C[C@H]3C2)c1 (mixture of isomers) [Example 78, rac-2-(1-hydroxy-1-(4-hydroxyphenyl)propan-2-yl)-5-(3-methoxy-phenyl)octahydro-cyclopenta[c]pyrrol-5-ol]
	36.3 nM	COc1ccc(C[C@]2(O)C[C@H]3CN(CC(O)c4ccc(O)cn4)C[C@H]3C2)cc1 (mixture of isomers) [Example 199, rac-6-{2-[(3aR,5R,6aS)-5-hydroxy-5-[(4-methoxyphenyl)methyl]-octahydrocyclopenta[c]pyrrol-2-yl]-1-hydroxyethyl}pyridin-3-ol]
100 to 1000 nM	448 nM	Oc1ccc(C(O)CN2C[C@@H]3C[C@](F)(Cc4ccccc4)C[C@@H]3C2)cc1 (mixture of isomers) [Example 311, rac-4-(2-((3aR,5s,6aS)-5-benzyl-5-fluorohexahydrocyclo-penta[c]pyrrol-2(1H)-yl)-1-hydroxyethyl) phenol]
> 10000 nM		Cc1ccccc1[C@]1(O)C[C@H]2CN(C(=O)Nc3cccc(C#N)c3)C[C@H]2C1 [Example 31, N-(3-cyanophenyl)-5-hydroxy-5-(2-methylphenyl)-octahydrocyclopenta[c] pyrrole-2-carboxamide]

SMILES	IC50 [1]	IC50 [2]
C[C@@H](NC(=O)N1C[C@@H]2C[C@@](O)(c3ccccc3)C[C@@H]2C1)c1ccc(Cl)cc1 [Example 20, N-[(1R)-1-(4-chlorophenyl)ethyl]-5-hydroxy-5-phenyl-octahydrocyclopenta[c] pyrrole-2-carboxamide]	> 10000 nM	
CC(C(=O)c1ccc(O)cc1)N1C[C@@H]2C[C@@](O)(CCc3ccccc3)C[C@@H]2C1 (mixture of isomers) [Example 319, rac-2-(5-hydroxy-5-phenethylhexa-hydrocyclo-penta[c]pyrrol-2(1H)-yl)-1-(4-hydroxyphenyl)propan-1-one]		497 nM
